Experimental data as given in US9969744B2, “Compounds for use in cognition improvement” (FUNDACIÓN PARA LA INVESTIGACIÓN MÉDICA APLICADA, priority 2014, dated 2018).

Experiments:
[1] = tested on: acetylated histone 3 at Lys9 (AcH3K9); assay: HDAC activity using SHSY-5Y cell line (Western blot, histone 3 acetylation); format: cell-based, human; design: key: basal x1 means no increment (+); basal x1.4≤(++)<basal x2; basal x2≤(+++)<basal x3; basal x3≤(++++); N.E. means No Effect; conditions: SHSY-5Y cells, 24 hours, compound concentration 1 μM
Experimental: HDAC inhibition leads to the corresponding functional response, increase in AcH3 level. Therefore, the cellular assay to conclude HDAC activity was assessed by Western blot analysis using specific antibodies against acetylated histone 3 at Lys9 (AcH3K9). Cell cultures were treated at 100 nM, 500 nM, 1 μM and/or 5 μM with compounds of the invention or known PDE inhibitors during 24 hours and, Table 1 (below) describes the functional activity: histone 3 acetylation level (AcH3) vs basal (no treatment).
A human neuroblastoma cell line (SHSY-5Y) was used. Cell line was obtained from ATCC (CRL-2266) and cultured in 35 mm plates (Becton Dickinson, NJ).
The cells were grown to 90% confluence at 37° C. in an atmosphere of 5% CO2 and in Dulbecco's modified Eagle's medium supplemented with Glutamax (Gibco, Invitrogen, CA), 100 units/ml penicillin/streptomycin, 1×MEM nonessential amino acids and 10% fetal bovine serum (Gibco, Invitrogen, CA).
Cells were collected and sonicated in a buffer containing a cold lysis buffer with protease inhibitors (0.2 M NaCl, 0.1 M HEPES (4-(2-hydroxyethyl)-1-piperazineethanesulfonic acid), 10% glycerol, 200 mM NaF, 2 mM Na4P2O7, 5 mM EDTA (ethylenediaminetetraacetic acid), 1 mM EGTA (ethylene glycol tetraacetic acid), 2 mM DTT (dithiothreitol), 0.5 mM PMSF (phenylmethylsulfonyl fluoride), 1 mM Na3VO4 and Complete Protease Inhibitor Cocktail, Roche Diagnostics), centrifuged at 14,000×g 4° C. for 20 min and the supernatant was aliquoted and stored at −80° C. Total protein concentrations were determined using the BioRad Bradford protein assay (BioRad Laboratories).
Protein samples were mixed with Laemmli sample buffer, resolved onto Sodium Dodecyl Sulfate (SDS)-polyacrylamide gels and transferred to nitrocellulose membrane. The membranes were blocked with 5% milk, 0.05% Tween-20 in PBS (Phosphate-Buffered Saline) or TBS (Tris-Buffered Saline) followed by overnight incubation with the following primary antibodies: rabbit polyclonal anti-acetylated Histone 3 (acetyl K9) (Cell Signalling Technology), rabbit polyclonal anti-total Histone 3 (Millipore), in the corresponding buffer. All the antibodies were used at 1:1000 dilution except the mouse monoclonal anti-β-actin which was used at 1:50.000. Following two washes in TBS/Tween20 and one wash in TBS alone, immunolabeled protein bands were detected by using HRP-conjugated anti-rabbit or anti-mouse antibody (Santa Cruz Biotechnology; dilution 1:5.000) following an enhanced chemiluminescence system (ECL, GE Healthcare Bioscience, Buckinghamshire, UK), and autoradiographic exposure to HyperfilmtECL (GE Healthcare Bioscience). Quantity One™ software v.4.6.3 (Bio-Rad) was used for quantification.

[2] = tested on: pTau; assay: AD-related markers in Tg2576 mice: pTau; format: in vivo; conditions: hippocampal homogenates, footnote: single dose of 1 mg/Kg i.p.
[3] = tested on: pCREB; assay: In-vivo pCREB in hippocampus of wild type mice; design: key: basal x1 means no increment (+); basal x1.4≤(++)<basal x2; basal x2≤(+++)<basal x3; basal x3≤(++++); N.E. means No Effect
Experimental: (§1) Another group of animals received the vehicle (1/1/8, v:v:v, DMSO/Tween 20/saline). One hour later, mice were sacrificed by cervical dislocation and their hippocampus was quickly dissected from the brains. Total tissue homogenates were obtained by homogenizing the hippocampus in a cold lysis buffer with protease inhibitors (0.2 M NaCl, 0.1 M HEPES, 10% glycerol, 200 mM NaF, 2 mM Na4P2O7, 5 mM EDTA, 1 mM EGTA, 2 mM DTT, 0.5 mM PMSF, 1 mM Na3VO4 and Complete Protease Inhibitor Cocktail, Roche Diagnostics). The homogenate was then centrifuged at 14,000×g at 4° C. for 20 min and the supernatant aliquoted and stored at −80° C. Total protein concentrations were determined using the BioRad Bradford protein assay (BioRad Laboratories). Protein samples were analyzed as described in the “in vitro” section.

[4] = tested on: phosphorylated tau (p-Tau); assay: AD-related markers in Tg2576 neurons: pTau; format: cell-based, mouse; conditions: Mus musculus, Primary neuron, references, read-out: pTau EC50 (50% decrease in pTau levels over basal)
Experimental: The effects of the compounds on amyloid pathology were analysed in primary cultures after 21 days in-vitro (DIV) of neurons derived from the hippocampus and cortex of Tg2576 mouse embryos. Tg2576 mice express the human 695-aa isoform of APP (hAPP) containing the Swedish double mutation, which favours A3 production. Neurons were treated for two days and collected at day 3, 24 h after the last treatment. First it was analysed the effect of the compounds on hAPP processing by the amyloidogenic pathway by measuring the carboxyl terminal fragment AβPP (C99), which is the precursor of Aβ42. […]
It was next analyzed the effect of the compounds on levels of phosphorylated tau (p-Tau) in the same samples, another marker of AD, using a phospho-specific antibody (AT8) that recognizes hyperphosphorylated epitopes on Ser202/Thr205. […]
To analyze APP-derived fragments and p-Tau levels in primary neuronal cultures, cells were collected in a buffer containing SDS (2%), Tris-HCl (10 mM, pH 7.4), protease inhibitors (1 mM phenylmethylsulfonyl fluoride (PMSF) and Complete Protease Inhibitor Cocktail: Roche Diagnostics) and phosphatase inhibitors (0.1 mM Na3VO4 and 1 mM NaF). […] Aliquots of the supernatant were frozen at […] and their protein concentrations determined by the Bradford method using the Bio-Rad protein assay (Bio-Rad, Hercules, Calif., USA). […]

[5] = tested on: AcH3; assay: In-vivo AcH3 in hippocampus of wild type mice; design: key: basal x1 means no increment (+); basal x1.4≤(++)<basal x2; basal x2≤(+++)<basal x3; basal x3≤(++++); N.E. means No Effect
Experimental: as §1

[6] = target: T1, PDE9A (Homo sapiens, UniProt O76083); assay: PDE enzyme activity assay (HTRF cGMP), PDE9A; format: biochemical; conditions: recombinant enzyme; read-out: PDE9A inhibition (IC50)
T1 construct: they are full-length with N-terminal GST tag; GST (N); purchased BPS Biosciences 60090; host or cells: baculovirus infected Sf9 cells

[7] = target: T2, PDE5A1 (Homo sapiens, UniProt O76074); assay: PDE enzyme activity assay (HTRF cGMP), PDE5A; format: biochemical; conditions: recombinant enzyme; read-out: PDE5A1 inhibition (IC50)
T2 construct: they are full-length with N-terminal GST tag; GST (N); purchased BPS Biosciences 60050; host or cells: baculovirus infected Sf9 cells

T1 sequence (O76083 1-533 isoform O76083-2): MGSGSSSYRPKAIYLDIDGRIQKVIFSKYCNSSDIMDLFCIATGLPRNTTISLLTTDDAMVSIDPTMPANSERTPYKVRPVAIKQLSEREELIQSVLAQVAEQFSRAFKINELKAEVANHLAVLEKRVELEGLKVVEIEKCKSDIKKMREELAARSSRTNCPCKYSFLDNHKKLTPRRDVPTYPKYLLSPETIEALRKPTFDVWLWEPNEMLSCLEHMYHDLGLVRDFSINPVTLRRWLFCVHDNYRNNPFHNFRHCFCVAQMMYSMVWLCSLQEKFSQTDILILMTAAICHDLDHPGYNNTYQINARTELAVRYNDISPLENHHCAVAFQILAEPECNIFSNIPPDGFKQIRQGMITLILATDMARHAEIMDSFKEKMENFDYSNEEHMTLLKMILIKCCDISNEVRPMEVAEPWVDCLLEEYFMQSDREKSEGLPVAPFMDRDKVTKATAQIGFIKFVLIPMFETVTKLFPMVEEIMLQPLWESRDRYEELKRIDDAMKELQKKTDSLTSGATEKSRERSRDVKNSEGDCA

EC50 [4] [µM] | IC50 [6] [µM] | IC50 [7] [µM] | Compound | AcH3: increment in Histone 3 acetylation level vs basal [1] | pTau biological response vs basal [2] | pCREB increment vs basal ([3]; single dose of 1 mg/Kg i.p.) | AcH3 increment vs basal ([5]; single dose of 1 mg/Kg i.p.) | pCREB increment vs basal ([3]; single dose of 12.5 mg/Kg i.p.) | AcH3 increment vs basal ([5]; single dose of 12.5 mg/Kg i.p.)
0.01 to 1 | > 10 | – | CN1CC(=O)N2[C@H](c3ccc4c(c3)OCO4)c3[nH]c4ccccc4c3C[C@@H]2C1=O [Tadalafil] | N.E. | +++ (basal x2≤(+++)<basal x3) | +++ (basal x2≤(+++)<basal x3) | N.E. | – | –
– | > 10 | > 10 | O=C(CCCCCCC(=O)Nc1ccccc1)NO [Vorinostat] | ++++ (basal x3≤(++++)) | – | – | – | N.E. | +++ (basal x2≤(+++)<basal x3)
